From US12138256B2, “Treatment of cardiopulmonary disorders” (Bayer Aktiengesellschaft, priority 2021, dated 2024)
Where “and” joins values, the source holds several entries; their conditions need not be identical. Equal values may be shown once.

How the values were obtained:
[1] = Particle size distribution by laser diffraction with dry dispersion; format: physicochemical; conditions: after micronization, dry measurement (3 or 4 bar)
Method: All measurements cited in the above tables were obtained by laser diffraction with dry dispersion using compressed air. Measuring in aqueous suspension with surfactants may lead to smaller particle sizes (×90 up to 1 μm smaller).
The particle size analysis data are usually reported as cumulative undersized distribution by volume. The symbol x is used to denote the particle size, which is defined as diameter of a volume equivalent sphere. Most common characteristic values are calculated from the particle size distribution by interpolation. Frequently used are the particle sizes at the undersize values of 10%, 50% and 90% of the volume distribution, denoted as x10, x50 and x90. x50 is also known as median particle size. The symbol d is widely used to designate the particle size, thus the symbol x may be replaced by the symbol d.

[2] = system: thromboxane analog U46619 induced PAH in minipigs; assay: PAH minipig model: comparison with and on top of standard of care (bosentan, sildenafil, riociguat); format: in vivo, Göttingen minipig
From the text: Efficacy of inhaled comparative example 11 was compared with systemically applied bosentan, sildenafil and riociguat (see FIG. 53a) in the PAH minipig model. […] Therefore inhaled application of comparative example 11 offers clear benefits as systemic effects are avoided, compared to standard of care.

[3] = Bosentan 1 mg/kg systemically applied, % change per animal

Structure (SMILES) | PSD X10 [1] | PSD X50 [1] | PSD X90 [1] | BP decrease % [2, 3] | PAP decrease % [2, 3] | effects on PAP and BP ([2]; bosentan 1 mg/kg, sildenafil 300 μg/kg/h, riociguat 3 μg/kg/h systemically, comparative example 11 30 and 100 μg/kg inhaled)
O.O=C(O)c1ccc(CCN(CCc2ccccc2OCc2ccc(-c3ccc(C(F)(F)F)cc3)cc2Cl)[C@H]2CCCc3nc(C(=O)O)ccc32)cc1 [8c] | X10: 0.4 μm, | X50: 1.8 μm, | X90: 4.8 μm | – | – | –
O.O=C(O)c1ccc(CCN(CCc2ccccc2OCc2ccc(-c3ccc(C(F)(F)F)cc3)cc2Cl)[C@H]2CCCc3nc(C(=O)O)ccc32)cc1 [8d] | X10: 0.5 μm, | X50: 2.3 μm, | X90: 9.6 μm | – | – | –
O.O=C(O)c1ccc(CCN(CCc2ccccc2OCc2ccc(-c3ccc(C(F)(F)F)cc3)cc2Cl)[C@H]2CCCc3nc(C(=O)O)ccc32)cc1 [8f] | X10: 0.6 μm, | X50: 2.4 μm, | X90: 6.3 μm | – | – | –
O.O=C(O)c1ccc(CCN(CCc2ccccc2OCc2ccc(-c3ccc(C(F)(F)F)cc3)cc2Cl)[C@H]2CCCc3nc(C(=O)O)ccc32)cc1 [8g] | X10: 0,5 μm, | X50: 1.8 μm, | X90: 3.9 μm | – | – | –
COc1ccccc1Oc1c(NS(=O)(=O)c2ccc(C(C)(C)C)cc2)nc(-c2ncccn2)nc1OCCO [Bosentan, reference compound] | – | – | – | −6.7% and −15.0% and −10.3% and −12.7% | −3.7% and 3.9% and −7.7% and −16.0% | decrease in BP with only minor effects on PAP
